Assay results from PubChem BioAssay (NCI).
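Assay format: 96-well plates, 48-hour exposure. Here, GI50 denotes the concentration required for 50% inhibition of growth. At the TGI there is no net growth.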

Key:
Test in all cases: growth of human tumour cells (NCI), 48 h
786-0 renal = system: 786-0 renal
A498 renal = system: A498 renal
A549 NSCLC = system: A549 NSCLC
ACHN renal = system: ACHN renal
BT-549 breast = system: BT-549 breast
CAKI-1 renal = system: CAKI-1 renal
CCRF-CEM leukemia = system: CCRF-CEM leukemia
COLO 205 colon = system: COLO 205 colon
DU-145 prostate = system: DU-145 prostate
HCC-2998 colon = system: HCC-2998 colon
HCT-116 colon = system: HCT-116 colon
HCT-15 colon = system: HCT-15 colon
HL-60(TB) leukemia = system: HL-60(TB) leukemia
HOP-62 NSCLC = system: HOP-62 NSCLC
HOP-92 NSCLC = system: HOP-92 NSCLC
HS 578T breast = system: HS 578T breast
HT29 colon = system: HT29 colon
IGROV1 ovarian = system: IGROV1 ovarian
K-562 leukemia = system: K-562 leukemia
KM12 colon = system: KM12 colon
LOX IMVI melanoma = system: LOX IMVI melanoma
M14 melanoma = system: M14 melanoma
MALME-3M melanoma = system: MALME-3M melanoma
MCF7 breast = system: MCF7 breast
MDA-MB-231 breast = system: MDA-MB-231 breast
MDA-MB-435 = system: MDA-MB-435
MOLT-4 leukemia = system: MOLT-4 leukemia
NCI-H226 lung = system: NCI-H226 lung
NCI-H23 lung = system: NCI-H23 lung
NCI-H460 lung = system: NCI-H460 lung
NCI-H522 lung = system: NCI-H522 lung
NCI/ADR-RES ovarian = system: NCI/ADR-RES ovarian
OVCAR-3 ovarian = system: OVCAR-3 ovarian
OVCAR-4 ovarian = system: OVCAR-4 ovarian
OVCAR-5 ovarian = system: OVCAR-5 ovarian
OVCAR-8 ovarian = system: OVCAR-8 ovarian
PC-3 prostate = system: PC-3 prostate
RPMI-8226 leukemia = system: RPMI-8226 leukemia
RXF 393 renal = system: RXF 393 renal
SF-268 CNS = system: SF-268 CNS
SF-295 CNS = system: SF-295 CNS
SF-539 CNS = system: SF-539 CNS
SK-MEL-2 melanoma = system: SK-MEL-2 melanoma
SK-MEL-28 melanoma = system: SK-MEL-28 melanoma
SK-MEL-5 melanoma = system: SK-MEL-5 melanoma
SK-OV-3 ovarian = system: SK-OV-3 ovarian
SN12C renal = system: SN12C renal
SNB-19 CNS = system: SNB-19 CNS
SNB-75 CNS = system: SNB-75 CNS
SR leukemia = system: SR leukemia
SW-620 colon = system: SW-620 colon
T-47D breast = system: T-47D breast
TK-10 renal = system: TK-10 renal
U251 CNS = system: U251 CNS
UACC-257 melanoma = system: UACC-257 melanoma
UACC-62 melanoma = system: UACC-62 melanoma
UO-31 renal = system: UO-31 renal

## Cn1cc(C2=C(c3c4n(c5ccccc35)CCN(C(N)=S)C4)C(=O)NC2=O)c2ccccc21
786-0 renal
  GI50: 5.23 µM
  TGI: > 25 µM
A498 renal
  GI50: 1.59 µM
  TGI: 9.64 µM
A549 NSCLC
  GI50: 5.55 µM
  TGI: > 25 µM
ACHN renal
  GI50: 5.95 µM
  TGI: > 25 µM
BT-549 breast
  GI50: 6.83 µM
  TGI: > 25 µM
CAKI-1 renal
  GI50: 4.85 µM
  TGI: > 20.8 µM
CCRF-CEM leukemia
  GI50: 4.61 µM
  TGI: > 25 µM
COLO 205 colon
  GI50: 5.97 µM
  TGI: > 21.6 µM
DU-145 prostate
  GI50: 8.04 µM
  TGI: > 23.1 µM
HCC-2998 colon
  GI50: 6.13 µM
  TGI: 20.8 µM
HCT-116 colon
  GI50: 4.11 µM
  TGI: > 16.8 µM
HCT-15 colon
  GI50: 6.31 µM
  TGI: > 25 µM
HL-60(TB) leukemia
  GI50: 2.33 µM
  TGI: 8.05 µM
HOP-62 NSCLC
  GI50: 6.81 µM
  TGI: > 25 µM
HOP-92 NSCLC
  GI50: 8.82 µM
  TGI: > 25 µM
HS 578T breast
  GI50: 0.88 µM
  TGI: 11.1 µM
HT29 colon
  GI50: 2.28 µM
  TGI: > 25 µM
IGROV1 ovarian
  GI50: 7.82 µM
  TGI: > 19.1 µM
K-562 leukemia
  GI50: 1.59 µM
  TGI: > 17 µM
KM12 colon
  GI50: 3.05 µM
  TGI: 9.69 µM
LOX IMVI melanoma
  GI50: 2.5 µM
  TGI: > 25 µM
M14 melanoma
  GI50: 4.71 µM
  TGI: > 25 µM
MALME-3M melanoma
  GI50: > 11 µM
  TGI: > 25 µM
MCF7 breast
  GI50: 1.24 µM
  TGI: > 17.2 µM
MDA-MB-231 breast
  GI50: 6.95 µM
  TGI: > 23.2 µM
MDA-MB-435
  GI50: 0.883 µM
  TGI: 5.98 µM
MOLT-4 leukemia
  GI50: 5.12 µM
  TGI: > 20.9 µM
NCI-H226 lung
  GI50: 5.84 µM
  TGI: > 19 µM
NCI-H23 lung
  GI50: 7.34 µM
  TGI: > 25 µM
NCI-H460 lung
  GI50: 6.91 µM
  TGI: > 22.8 µM
NCI-H522 lung
  GI50: 1.95 µM
  TGI: > 15 µM
NCI/ADR-RES ovarian
  GI50: 9.48 µM
  TGI: > 25 µM
OVCAR-3 ovarian
  GI50: 1.75 µM
  TGI: 7.36 µM
OVCAR-4 ovarian
  GI50: 6.87 µM
  TGI: > 25 µM
OVCAR-5 ovarian
  GI50: 16 µM
  TGI: > 25 µM
OVCAR-8 ovarian
  GI50: 7.13 µM
  TGI: > 25 µM
PC-3 prostate
  GI50: 4.92 µM
  TGI: > 25 µM
RPMI-8226 leukemia
  GI50: 12.9 µM
  TGI: > 25 µM
RXF 393 renal
  GI50: 2.34 µM
  TGI: 10.6 µM
SF-268 CNS
  GI50: 5.58 µM
  TGI: > 25 µM
SF-295 CNS
  GI50: 2.64 µM
  TGI: 10.8 µM
SF-539 CNS
  GI50: 1.48 µM
  TGI: 7.86 µM
SK-MEL-2 melanoma
  GI50: 4.32 µM
  TGI: 13 µM
SK-MEL-28 melanoma
  GI50: 5.34 µM
  TGI: > 25 µM
SK-MEL-5 melanoma
  GI50: 2.67 µM
  TGI: > 16.7 µM
SK-OV-3 ovarian
  GI50: 4.51 µM
  TGI: > 25 µM
SN12C renal
  GI50: 6.99 µM
  TGI: > 25 µM
SNB-19 CNS
  GI50: 12.8 µM
  TGI: > 25 µM
SNB-75 CNS
  GI50: 0.36 µM
  TGI: 10.6 µM
SR leukemia
  GI50: 1.35 µM
  TGI: > 15.1 µM
SW-620 colon
  GI50: 3.45 µM
  TGI: > 25 µM
T-47D breast
  GI50: 10.4 µM
  TGI: > 25 µM
TK-10 renal
  GI50: 8.64 µM
  TGI: > 23.7 µM
U251 CNS
  GI50: 4.49 µM
  TGI: 11.2 µM
UACC-257 melanoma
  GI50: 7.11 µM
  TGI: > 25 µM
UACC-62 melanoma
  GI50: 4.27 µM
  TGI: > 25 µM
UO-31 renal
  GI50: 4.37 µM
  TGI: > 21.7 µM
